{"source": "patent US5770083A", "about": "“Separation of polar compounds by affinity countercurrent chromatography” (The United States of America as represented by the …, priority 1995, dated 1998)", "key": {"[1]": {"test": "Partition coefficient (K) in two-phase solvent systems, test tube procedure", "assay_type": "physicochemical", "description": "Each solvent system was prepared by equilibrating the solvent mixture, excluding the ligand, in a separatory funnel at room temperature. After two clear layers were formed, the two phases were separated. Then, a desired amount of the ligand was added to the organic phase which was then used as the stationary phase. The aqueous phase was used as the mobile phase.\nPartition coefficients were measured using the standard test tube procedure as follows: The two-phase solvent system was prepared as described above. An aliquot of 2 mL of each phase, a total of 4 mL, was delivered in a test tube (13 mm ID×100 mm length) where a desired amount of the ligand and 1-2 mg of sample were added. Then, the test tube was stoppered and the contents were mixed until the resolved sample was completely equilibrated between two phases. Using a vortex mixer, it required 10 successive applications at a few second intervals after the sample was dissolved in the solvent. The tube was stand still until clear two layers were formed. If necessary, the tubes were centrifuged for 2-3 min at 1000×g to accelerate the phase separation. An aliquot of each phase, usually 100 μl, was separately diluted with 2 mL of a suitable diluent, usually methanol, and the absorbance determined with a spectrophotometer, (Zeiss, Hanover, Md., USA) at a desired wavelength. The partition coefficient for each component was obtained by the absorbance of the upper phase divided by that of the lower phase. […]"}, "[2]": {"settings": "n-butanol/water two-phase solvent systems, no ligand; stated as background; cited from earlier work"}, "[3]": {"settings": "methyl t-butyl ether / 0.1 M KH2PO4 (1:1), ligand DEHPA 10%, upper/lower phase"}}, "note": "Read-outs that look alike come from different tables or passages of the source.", "data": [{"compound": "N[C@@H](Cc1ccc(O)c(O)c1)C(=O)O", "note": "(racemic) [DOPA, 3,4-dihydroxyphenylalanine]", "values": [{"measurement": "Partition Coefficient (K)", "setting": "[1]", "value": 0.01}, {"measurement": "K value (in words)", "setting": "[1]; Dopa in zwitterionic form, pH-zone-refining run, Example 5", "value": "extremely low K value"}]}, {"compound": "CCCCC(CC)COP(=O)(O)OCC(CC)CCCC", "note": "(stereo not shown) [DEHPA, di-(2-ethylhexyl)phosphoric acid]", "values": [{"measurement": "K value of the ligand", "setting": "[1]; ligand almost unilaterally distributed into the organic phase, MBE/aqueous systems", "value": "> 100"}]}, {"compound": "CNC[C@H](O)c1ccc(O)c(O)c1", "note": "[Epinephrine, epinephrine]", "values": [{"measurement": "Partition Coefficient (K)", "setting": "[1]; methyl t-butyl ether / 0.1 M NH4OAc and 0.5 M HCl (1:1), ligand DEHPA 1.5%, upper/lower phase", "value": 0.4}, {"measurement": "Partition Coefficient", "setting": "[1]; solvent system I: nButanol/H2O", "value": 0.24}, {"measurement": "Partition Coefficient", "setting": "[1]; solvent system II: nButanol/0.1M NH4OAc", "value": 0.13}, {"measurement": "Partition Coefficient", "setting": "[1]; solvent system III: MBE/H2O", "value": 0.06}, {"measurement": "Partition Coefficient", "setting": "[1]; solvent system IV: MBE/0.1M NH4OAc", "value": 0.16}, {"measurement": "Partition Coefficient", "setting": "[1]; solvent system V: MBE/DEHPA/0.1M NH4OAc (9:1:10)", "value": 5.83}, {"measurement": "Partition Coefficient", "setting": "[1]; solvent system VI: MBE/DEHPA/0.05M HCl (9:1:10)", "value": 0.01}, {"measurement": "Partition Coefficient", "setting": "[1]; solvent system VII: MBE/DEHPA/0.1M NH4OAc & 0.05M HCl (9:1:10)", "value": 1.42}, {"measurement": "partition (in words)", "setting": "[2]", "value": "almost exclusively into the aqueous phase"}]}, {"compound": "COc1cc(C(O)CN)ccc1O", "note": "(stereo not shown) [Normetanephrine, normetanephrine]", "values": [{"measurement": "Partition Coefficient (K)", "setting": "[1]", "value": 0.5}]}, {"compound": "NCCc1ccc(O)cc1", "note": "[Tyramine, tyramine]", "values": [{"measurement": "Partition Coefficient (K)", "setting": "[1]", "value": 1.7}]}, {"compound": "Ala--Tyr", "values": [{"measurement": "Partition Coefficient (K)", "setting": "[1]; [3]", "value": 0.5}]}, {"compound": "Gly--Tyr", "values": [{"measurement": "Partition Coefficient (K)", "setting": "[1]; [3]", "value": 0.1}]}, {"compound": "Leu--Tyr", "values": [{"measurement": "Partition Coefficient (K)", "setting": "[1]; [3]", "value": 10}]}, {"compound": "Tyr--Ala", "values": [{"measurement": "Partition Coefficient (K)", "setting": "[1]; [3]", "value": 0.8}]}, {"compound": "Tyr--Gly", "values": [{"measurement": "Partition Coefficient (K)", "setting": "[1]; [3]", "value": 0.2}]}, {"compound": "Tyr--Leu", "values": [{"measurement": "Partition Coefficient (K)", "setting": "[1]; [3]", "value": 18}]}, {"compound": "Tyr--Val", "values": [{"measurement": "Partition Coefficient (K)", "setting": "[1]; [3]", "value": 4.9}]}, {"compound": "Val--Tyr", "values": [{"measurement": "Partition Coefficient (K)", "setting": "[1]; [3]", "value": 2.8}]}]}
